From patent US20240245691A1 (Sitryx Therapeutics Limited, priority 2021, published 2024)
Where two headings read alike, the source gives them in different places.

What was measured:
IL-1β = test: THP-1 AlphaLISA IL-1β cytokine assay (differentiated THP-1 cells); assay type: cell-based; conditions: Homo sapiens
Method in brief: (§1)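 PMA-differentiated THP-1 cells were preincubated 30 min with compound, stimulated with LPS for 24 h, then nigericin for 1 h, all at 37 °C. Supernatant IL-1β and IL-6 were quantified by AlphaLISA. % inhibition is normalised to +LPS and −LPS controls per cytokine.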

IL-6 = test: THP-1 AlphaLISA IL-6 cytokine assay (differentiated THP-1 cells); assay type: cell-based; conditions: Homo sapiens, THP-1, read-out: IL-6 (IC50)
Method in brief: as §1

[1] = tested on: NRF2 (nuclear factor erythroid 2-related factor 2); test: NRF2 +/-GSH activation assay (DiscoverX PathHunter NRF2 translocation kit, U2OS cells); assay type: cell-based; conditions: Homo sapiens, U2OS; for EC50: 6 h
[2] = Hepatocyte stability assay, human; assay type: in vitro ADME; conditions: human, hepatocytes, T½
Method in brief: (§2)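 Cryopreserved hepatocytes at 0.5×10^6 cells/mL in Leibovitz buffer, 37 °C, with 10 μM compound (0.1% DMSO), duplicate. Samples at 0-60 min, acetonitrile quench, LC-MS/MS; intrinsic clearance and half-life from ln % remaining versus time, with buffer-only incubations as control.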

[3] = tested on: cryo-preserved hepatocytes; test: Hepatocyte stability assay, human; assay type: in vitro ADME; conditions: human, hepatocytes
Method in brief: as §2

[4] = Hepatocyte stability assay, mouse; assay type: in vitro ADME; conditions: mouse, hepatocytes, T½
Method in brief: as §2

[5] = tested on: cryo-preserved hepatocytes; test: Hepatocyte stability assay, mouse; assay type: in vitro ADME; conditions: mouse, hepatocytes
Method in brief: as §2

plasma protein [6] = test: Plasma protein binding (rapid equilibrium dialysis), human; assay type: in vitro ADME
Description: (§3) Equilibrium dialysis is an accurate and reliable method for determining protein binding affinities to chemical or biological substances of low molecular weight. The Rapid Equilibrium Dialysis (RED) plate is specifically designed and extensively validated for plasma protein binding assays. It is also designed for minimal non-specific binding (Thermo Fisher).
(§4) • Phosphate buffered saline (PBS) pH 7.4 was prepared using PBS tablets as per the manufacturer's instructions. • Compound and marker stocks were prepared at 10 mM in DMSO and further diluted to 100× the assay concentration in DMSO. • Plasma was thawed on the day of the assay and centrifuged. The supernatant was transferred to a fresh vessel and the pH adjusted to pH 7.4 using lactic acid or sodium hydroxide.
(§5) Pre-prepared 100× assay compound stocks were spiked 1:100 into pH adjusted plasma. 200 μL of spiked plasma was added to the red compartment of the rapid equilibrium dialysis (RED) device for each replicate. 350 μL of PBS was added to the buffer compartment. The plate was sealed with a breathable lid and shaken on an orbital shaker in a 37° C. incubator, 5% CO2 for 4 hours.
(§6) Standard final incubation conditions were 5 μM compound in plasma containing 1% (v/v) DMSO.
(§7) A sample of the plasma/compound mixture was taken, mixed with an equal volume of PBS and quenched 1:3 with ice-cold acetonitrile containing internal standard. Methanol was also added to matrix match with calibration curve samples. This was the t=0 sample.
(§8) Post-incubation, plasma and buffer were sampled from their respective RED device compartments into separate tubes containing an equal volume of the alternate matrix for each replicate. Samples were quenched 1:3 with ice-cold acetonitrile containing internal standard. Methanol was also added to matrix match with calibration curve samples.
Calibration curves were prepared in methanol and spiked such that the matrix was equivalent to the assay samples.
Quenched samples were mixed thoroughly and protein precipitated at −20° C. for a minimum of 12 hours. Samples were then centrifuged at 4° C. Supernatants were transferred to a fresh 96 well plate for analysis.
Positive control markers were included.
(§9) Fraction unbound, percent bound and percent recovery were the standard assay parameters reported. They were calculated using the following equations: […]
An example compound of formula (I) was tested in this assay. Reference Example 2 (RE2) (which corresponds to Example 49 in WO2020/222011 (Sitryx Therapeutics, 2020)) was used as a comparator compound.

plasma protein [7] = test: Plasma protein binding (rapid equilibrium dialysis), mouse; assay type: in vitro ADME; conditions: 5 μM compound, 4 hours
Description: as §3, §4, §5, §6, §7, §8
Calibration curves were prepared in methanol and spiked such that the matrix was equivalent to the assay samples. […]
as §9

C=C(CC(=O)N[C@@H](C)c1ccc(C(F)(F)F)cc1)C(=O)O [Example 3, (S)-2-methylene-4-oxo-4-((1-(4-(trifluoromethyl)phenyl)ethyl)amino)butanoic acid]
IC50 (IL-1β; THP-1, read-out: IL-1β (IC50)): 2.2 µM
IC50 (IL-1β; THP-1, read-out: IL-1β (IC50), data from repeated experiments): 4 µM
IC50 (IL-6): > 82.5 µM
EC50 ([1]; read-out: NRF2 activation EC50, +GSH): > 100 µM
EC50 ([1]; read-out: NRF2 activation EC50, −GSH): > 100 µM
Emax ([1]; read-out: NRF2 activation Emax, +GSH): 0%
Emax ([1]; read-out: NRF2 activation Emax, −GSH): 0%
half-life at 10 μM [2]: > 7.67 h
half-life at 10 μM ([2]; data from repeated experiments): 5.97 h
Clint [3]: 4 μL min^−1 10^−6 cells
half-life at 10 μM [4]: 6.7 h
half-life at 10 μM ([4]; data from repeated experiments): > 7.67 h
Clint [5]: <3 μL min^−1 10^−6 cells
Binding (%) (plasma protein [6]; Human plasma, 5 μM compound, 4 hours): 89.0%
plasma protein binding compared to prior art ester compound (in words) (plasma protein [6]; Table 4, human and mouse plasma): lower plasma protein binding
Binding (%) (plasma protein [7]): 86.8%
